Measurements reported in ChEMBL document CHEMBL5678810.
Calls of active or inactive are those of the source. The calls are words filed in the database; no cut-off is given here.

Experiments:
[1] = molecular target: Leucine-rich repeat serine/threonine-protein kinase 2 (Homo sapiens) (UniProt Q5S007); test: Inhibition of LRRK2 phosphorylation at Ser935 residue in EBV immortalized human derived lymphoblastoid cells at 0.01 to 3 uM incubated for 90 mins by immunoblot analysis; type: cell-based; conditions: Lymphoblastoid cell, dose 0.01-3 µM
[2] = test system: Tyrosine-protein kinase ABL1 (Homo sapiens), P00519 [E255K]; test: Inhibition of T7 bacteriophage fused human phosphorylated ABL1 E255K mutant at 10 uM by KINOMEscan analysis relative to control
[3] = test system: Tyrosine-protein kinase ABL1 (Homo sapiens), P00519 [T315I]; test: Inhibition of T7 bacteriophage fused human nonphosphorylated ABL1 T315I mutant at 10 uM by KINOMEscan analysis relative to control
[4] = molecular target: ALK tyrosine kinase receptor (Homo sapiens) (UniProt Q9UM73); test: Inhibition of T7 bacteriophage fused human ALK at 10 uM by KINOMEscan analysis relative to control
Chain of ALK tyrosine kinase receptor (Homo sapiens) (Q9UM73 19-1620 limits assumed): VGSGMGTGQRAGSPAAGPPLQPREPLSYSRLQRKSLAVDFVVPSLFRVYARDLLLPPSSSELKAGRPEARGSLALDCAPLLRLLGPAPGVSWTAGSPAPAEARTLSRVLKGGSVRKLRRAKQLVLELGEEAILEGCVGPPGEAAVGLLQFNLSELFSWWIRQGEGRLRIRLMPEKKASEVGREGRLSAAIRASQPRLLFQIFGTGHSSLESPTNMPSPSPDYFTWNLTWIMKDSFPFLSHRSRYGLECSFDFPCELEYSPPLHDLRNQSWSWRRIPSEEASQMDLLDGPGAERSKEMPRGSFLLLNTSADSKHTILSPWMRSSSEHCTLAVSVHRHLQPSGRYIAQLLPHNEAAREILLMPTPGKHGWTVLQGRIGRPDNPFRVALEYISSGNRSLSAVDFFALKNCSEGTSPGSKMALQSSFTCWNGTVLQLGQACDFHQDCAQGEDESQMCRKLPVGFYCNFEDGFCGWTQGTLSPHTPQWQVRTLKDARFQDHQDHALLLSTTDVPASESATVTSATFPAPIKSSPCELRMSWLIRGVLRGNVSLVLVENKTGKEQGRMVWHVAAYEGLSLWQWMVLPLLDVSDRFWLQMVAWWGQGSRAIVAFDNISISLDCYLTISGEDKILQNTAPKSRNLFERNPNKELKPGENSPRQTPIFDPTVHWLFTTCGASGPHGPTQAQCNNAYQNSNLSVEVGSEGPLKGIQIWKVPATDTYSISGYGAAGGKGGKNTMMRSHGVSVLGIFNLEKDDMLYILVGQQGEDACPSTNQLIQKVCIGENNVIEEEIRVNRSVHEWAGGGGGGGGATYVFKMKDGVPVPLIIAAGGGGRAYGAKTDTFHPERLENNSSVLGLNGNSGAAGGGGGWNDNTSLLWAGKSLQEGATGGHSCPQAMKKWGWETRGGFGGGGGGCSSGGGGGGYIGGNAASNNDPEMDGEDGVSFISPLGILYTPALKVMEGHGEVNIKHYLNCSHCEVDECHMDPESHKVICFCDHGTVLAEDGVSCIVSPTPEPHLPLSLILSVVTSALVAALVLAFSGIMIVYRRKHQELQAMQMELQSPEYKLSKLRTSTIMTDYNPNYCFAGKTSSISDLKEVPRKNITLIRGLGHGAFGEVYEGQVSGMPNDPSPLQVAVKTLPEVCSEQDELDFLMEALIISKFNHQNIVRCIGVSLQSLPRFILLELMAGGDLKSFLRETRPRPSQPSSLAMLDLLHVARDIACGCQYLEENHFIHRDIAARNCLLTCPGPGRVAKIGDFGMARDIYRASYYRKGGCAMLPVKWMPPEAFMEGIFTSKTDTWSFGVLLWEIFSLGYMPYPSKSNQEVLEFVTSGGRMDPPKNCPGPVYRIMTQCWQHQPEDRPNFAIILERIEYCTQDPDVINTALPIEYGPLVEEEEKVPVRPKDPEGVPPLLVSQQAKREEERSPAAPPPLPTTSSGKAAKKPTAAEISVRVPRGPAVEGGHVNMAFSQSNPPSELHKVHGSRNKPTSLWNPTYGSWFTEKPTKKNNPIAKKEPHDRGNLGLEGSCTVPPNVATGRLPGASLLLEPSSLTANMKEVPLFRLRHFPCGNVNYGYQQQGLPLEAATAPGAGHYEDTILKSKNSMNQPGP

[5] = molecular target: Calcium/calmodulin-dependent protein kinase kinase 2 (Homo sapiens) (UniProt Q96RR4); test: Inhibition of T7 bacteriophage fused human CAMKK2 at 10 uM by KINOMEscan analysis relative to control
[6] = molecular target: Cyclin-dependent kinase 11B (Homo sapiens) (UniProt P21127); test: Inhibition of T7 bacteriophage fused human CDK11 at 10 uM by KINOMEscan analysis relative to control
Chain of Cyclin-dependent kinase 11B (Homo sapiens) (P21127 whole entry, the tested form may be a part, canonical isoform): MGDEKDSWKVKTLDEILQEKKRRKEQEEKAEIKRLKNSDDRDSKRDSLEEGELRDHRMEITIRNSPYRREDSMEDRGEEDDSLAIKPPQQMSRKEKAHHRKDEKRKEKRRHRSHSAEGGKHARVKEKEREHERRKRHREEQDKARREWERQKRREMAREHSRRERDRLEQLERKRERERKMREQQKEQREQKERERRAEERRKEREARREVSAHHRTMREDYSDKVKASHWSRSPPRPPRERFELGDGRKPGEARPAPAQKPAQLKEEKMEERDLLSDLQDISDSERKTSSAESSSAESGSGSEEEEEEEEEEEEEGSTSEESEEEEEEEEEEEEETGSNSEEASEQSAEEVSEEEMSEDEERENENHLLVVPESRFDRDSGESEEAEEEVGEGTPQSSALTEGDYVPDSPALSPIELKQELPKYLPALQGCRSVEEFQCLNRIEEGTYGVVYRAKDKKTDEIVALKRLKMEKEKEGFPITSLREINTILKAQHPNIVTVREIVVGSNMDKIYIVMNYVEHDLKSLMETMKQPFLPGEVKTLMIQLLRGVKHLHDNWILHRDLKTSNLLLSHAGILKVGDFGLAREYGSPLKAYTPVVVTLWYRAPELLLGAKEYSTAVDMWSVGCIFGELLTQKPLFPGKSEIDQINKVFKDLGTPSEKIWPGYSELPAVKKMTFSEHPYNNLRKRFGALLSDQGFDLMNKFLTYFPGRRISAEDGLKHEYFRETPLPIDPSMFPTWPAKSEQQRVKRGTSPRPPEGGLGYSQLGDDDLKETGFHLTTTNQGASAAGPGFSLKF

[7] = molecular target: Casein kinase I isoform gamma-2 (Homo sapiens) (UniProt P78368); test: Inhibition of T7 bacteriophage fused human CSNK1G2 at 10 uM by KINOMEscan analysis relative to control
[8] = molecular target: Ephrin type-A receptor 4 (Homo sapiens) (UniProt P54764); test: Inhibition of T7 bacteriophage fused human EPHA4 at 10 uM by KINOMEscan analysis relative to control
[9] = molecular target: Ephrin type-A receptor 6 (Homo sapiens) (UniProt Q9UF33); test: Inhibition of T7 bacteriophage fused human EPHA6 at 10 uM by KINOMEscan analysis relative to control
[10] = molecular target: Receptor tyrosine-protein kinase erbB-2 (Homo sapiens) (UniProt P04626); test: Inhibition of T7 bacteriophage fused human ERBB2 at 10 uM by KINOMEscan analysis relative to control
[11] = test system: eIF-2-alpha kinase GCN2 (Homo sapiens), Q9P2K8 [S808G]; test: Inhibition of T7 bacteriophage fused human GCN2 S808G mutant Kinase domain-2 at 10 uM by KINOMEscan analysis relative to control
[12] = molecular target: Mast/stem cell growth factor receptor Kit (Homo sapiens) (UniProt P10721); test: Inhibition of T7 bacteriophage fused human KIT at 10 uM by KINOMEscan analysis relative to control
Chain of Mast/stem cell growth factor receptor Kit (Homo sapiens) (P10721 whole entry, the tested form may be a part): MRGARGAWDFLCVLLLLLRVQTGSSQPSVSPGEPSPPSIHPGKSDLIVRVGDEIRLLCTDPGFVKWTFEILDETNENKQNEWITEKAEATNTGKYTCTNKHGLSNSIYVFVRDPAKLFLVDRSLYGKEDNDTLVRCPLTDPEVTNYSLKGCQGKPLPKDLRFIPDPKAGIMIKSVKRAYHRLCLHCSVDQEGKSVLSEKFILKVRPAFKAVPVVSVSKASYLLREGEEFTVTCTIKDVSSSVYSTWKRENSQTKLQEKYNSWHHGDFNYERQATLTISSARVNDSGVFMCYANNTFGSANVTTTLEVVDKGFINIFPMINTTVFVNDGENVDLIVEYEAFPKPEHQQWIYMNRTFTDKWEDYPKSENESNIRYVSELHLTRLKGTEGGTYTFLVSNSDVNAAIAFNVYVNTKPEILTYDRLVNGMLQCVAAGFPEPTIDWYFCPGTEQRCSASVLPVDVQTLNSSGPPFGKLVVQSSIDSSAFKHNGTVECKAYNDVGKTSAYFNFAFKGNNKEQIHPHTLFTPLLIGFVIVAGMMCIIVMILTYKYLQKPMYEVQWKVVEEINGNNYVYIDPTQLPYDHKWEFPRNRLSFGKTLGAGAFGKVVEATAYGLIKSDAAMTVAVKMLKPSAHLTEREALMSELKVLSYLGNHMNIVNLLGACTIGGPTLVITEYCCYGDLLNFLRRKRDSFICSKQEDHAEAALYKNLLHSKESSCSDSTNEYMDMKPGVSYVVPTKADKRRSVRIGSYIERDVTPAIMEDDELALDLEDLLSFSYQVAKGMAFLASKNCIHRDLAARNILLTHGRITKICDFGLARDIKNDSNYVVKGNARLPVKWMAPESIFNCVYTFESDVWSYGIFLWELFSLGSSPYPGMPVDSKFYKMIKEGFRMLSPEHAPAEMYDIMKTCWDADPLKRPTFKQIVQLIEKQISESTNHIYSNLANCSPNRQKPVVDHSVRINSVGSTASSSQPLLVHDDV

[13] = test system: Mast/stem cell growth factor receptor Kit (Homo sapiens), P10721 [V559D,V654A]; test: Inhibition of T7 bacteriophage fused human KIT V559D/V654A mutant at 10 uM by KINOMEscan analysis relative to control
[14] = molecular target: Dual specificity mitogen-activated protein kinase kinase 4 (Homo sapiens) (UniProt P45985); test: Inhibition of T7 bacteriophage fused human MEK4 at 10 uM by KINOMEscan analysis relative to control
[15] = molecular target: Mitogen-activated protein kinase kinase kinase 10 (Homo sapiens) (UniProt Q02779); test: Inhibition of T7 bacteriophage fused human MLK2 at 10 uM by KINOMEscan analysis relative to control
[16] = molecular target: Serine/threonine-protein kinase MRCK alpha (Homo sapiens) (UniProt Q5VT25); test: Inhibition of T7 bacteriophage fused human MRCKA at 10 uM by KINOMEscan analysis relative to control
Chain of Serine/threonine-protein kinase MRCK alpha (Homo sapiens) (Q5VT25 whole entry, the tested form may be a part): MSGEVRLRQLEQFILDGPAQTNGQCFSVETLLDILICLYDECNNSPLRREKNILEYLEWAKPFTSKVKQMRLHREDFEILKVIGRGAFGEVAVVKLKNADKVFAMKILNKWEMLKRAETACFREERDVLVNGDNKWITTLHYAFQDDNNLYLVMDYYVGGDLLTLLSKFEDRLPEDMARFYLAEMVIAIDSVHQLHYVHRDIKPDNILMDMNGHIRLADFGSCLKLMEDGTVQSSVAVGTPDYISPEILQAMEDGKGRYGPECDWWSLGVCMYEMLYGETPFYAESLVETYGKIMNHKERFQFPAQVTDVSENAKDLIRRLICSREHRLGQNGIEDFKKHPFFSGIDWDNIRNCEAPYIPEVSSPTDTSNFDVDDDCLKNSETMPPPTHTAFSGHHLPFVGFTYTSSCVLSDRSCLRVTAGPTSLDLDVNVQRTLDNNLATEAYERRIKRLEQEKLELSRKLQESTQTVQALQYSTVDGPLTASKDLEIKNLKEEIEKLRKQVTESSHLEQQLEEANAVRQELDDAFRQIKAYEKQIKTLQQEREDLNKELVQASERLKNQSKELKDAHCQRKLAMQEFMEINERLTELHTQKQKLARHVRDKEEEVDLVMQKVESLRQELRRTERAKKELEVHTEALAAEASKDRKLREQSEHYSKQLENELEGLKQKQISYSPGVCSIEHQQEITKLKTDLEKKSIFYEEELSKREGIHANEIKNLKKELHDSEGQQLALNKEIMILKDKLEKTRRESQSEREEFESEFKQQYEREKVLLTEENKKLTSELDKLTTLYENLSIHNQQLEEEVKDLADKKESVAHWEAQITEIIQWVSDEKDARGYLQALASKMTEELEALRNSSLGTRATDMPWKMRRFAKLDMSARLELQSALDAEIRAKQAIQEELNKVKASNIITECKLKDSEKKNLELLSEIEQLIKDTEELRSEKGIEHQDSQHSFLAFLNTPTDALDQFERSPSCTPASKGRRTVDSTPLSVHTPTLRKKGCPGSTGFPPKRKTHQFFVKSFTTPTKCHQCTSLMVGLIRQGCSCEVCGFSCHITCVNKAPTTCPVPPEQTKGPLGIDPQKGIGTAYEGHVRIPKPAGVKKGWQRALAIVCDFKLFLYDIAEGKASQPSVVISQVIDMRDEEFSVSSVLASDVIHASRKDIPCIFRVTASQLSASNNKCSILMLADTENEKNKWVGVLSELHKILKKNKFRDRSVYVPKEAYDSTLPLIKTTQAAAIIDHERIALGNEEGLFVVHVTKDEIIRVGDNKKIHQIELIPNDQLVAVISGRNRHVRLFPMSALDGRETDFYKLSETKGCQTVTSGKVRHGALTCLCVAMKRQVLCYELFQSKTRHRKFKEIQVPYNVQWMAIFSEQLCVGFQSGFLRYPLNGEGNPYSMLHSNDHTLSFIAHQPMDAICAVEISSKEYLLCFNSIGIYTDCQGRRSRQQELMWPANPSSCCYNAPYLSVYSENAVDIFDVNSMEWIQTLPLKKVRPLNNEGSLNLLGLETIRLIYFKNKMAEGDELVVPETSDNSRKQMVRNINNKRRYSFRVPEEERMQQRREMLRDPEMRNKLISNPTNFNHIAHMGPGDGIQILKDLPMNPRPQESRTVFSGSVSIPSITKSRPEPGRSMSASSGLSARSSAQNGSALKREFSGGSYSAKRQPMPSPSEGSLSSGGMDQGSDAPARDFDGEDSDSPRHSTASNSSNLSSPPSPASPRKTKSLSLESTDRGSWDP

[17] = molecular target: Cyclin-dependent kinase 15 (Homo sapiens) (UniProt Q96Q40); test: Inhibition of T7 bacteriophage fused human PFTAIRE2 at 10 uM by KINOMEscan analysis relative to control
[18] = test system: Phosphatidylinositol 4,5-bisphosphate 3-kinase catalytic subunit alpha isoform (Homo sapiens), P42336 [H1047Y]; test: Inhibition of T7 bacteriophage fused human PIK3CA H1047Y mutant at 10 uM by KINOMEscan analysis relative to control
[19] = molecular target: Protein kinase C epsilon type (Homo sapiens) (UniProt Q02156); test: Inhibition of T7 bacteriophage fused human PRKCE at 10 uM by KINOMEscan analysis relative to control
[20] = molecular target: Protein kinase C theta type (Homo sapiens) (UniProt Q04759); test: Inhibition of T7 bacteriophage fused human PRKCQ at 10 uM by KINOMEscan analysis relative to control
[21] = molecular target: Serine/threonine-protein kinase RIO1 (Homo sapiens) (UniProt Q9BRS2); test: Inhibition of T7 bacteriophage fused human RIOK1 at 10 uM by KINOMEscan analysis relative to control
[22] = molecular target: Receptor-interacting serine/threonine-protein kinase 1 (Homo sapiens) (UniProt Q13546); test: Inhibition of T7 bacteriophage fused human RIPK1 at 10 uM by KINOMEscan analysis relative to control
[23] = molecular target: Rho-associated protein kinase 1 (Homo sapiens) (UniProt Q13464); test: Inhibition of T7 bacteriophage fused human ROCK1 at 10 uM by KINOMEscan analysis relative to control
[24] = molecular target: Ribosomal protein S6 kinase alpha-2 (Homo sapiens) (UniProt Q15349); test: Inhibition of T7 bacteriophage fused human C-terminal RSK3 Kinase domain-2 at 10 uM by KINOMEscan analysis relative to control
[25] = molecular target: Uncharacterized serine/threonine-protein kinase SBK3 (Homo sapiens) (UniProt P0C264); test: Inhibition of T7 bacteriophage fused human SgK110 at 10 uM by KINOMEscan analysis relative to control
[26] = molecular target: Serine/threonine-protein kinase TNNI3K (Homo sapiens) (UniProt Q59H18); test: Inhibition of T7 bacteriophage fused human TNNI3K at 10 uM by KINOMEscan analysis relative to control
[27] = molecular target: Fibroblast growth factor receptor 4 (Homo sapiens) (UniProt P22455); test: Inhibition of T7 bacteriophage fused human FGFR4 at 10 uM by KINOMEscan analysis relative to control; values are per cent of control
[28] = molecular target: Insulin receptor-related protein (Homo sapiens) (UniProt P14616); test: Inhibition of T7 bacteriophage fused human INSRR at 10 uM by KINOMEscan analysis relative to control; values are per cent of control
[29] = molecular target: Serine/threonine-protein kinase DCLK3 (Homo sapiens) (UniProt Q9C098); test: Inhibition of T7 bacteriophage fused human DCAMKL3 at 10 uM by KINOMEscan analysis relative to control; values are per cent of control
[30] = test system: Mast/stem cell growth factor receptor Kit (Homo sapiens), P10721 [V559D,T670I]; test: Inhibition of T7 bacteriophage fused human KIT V559D/T670I mutant at 10 uM by KINOMEscan analysis relative to control; values are per cent of control
Chain of Mast/stem cell growth factor receptor Kit (Homo sapiens), P10721 [V559D,T670I] (P10721 whole entry V559D/T670I, the tested form may be a part): as the sequence (P10721 whole entry, the tested form may be a part) above, with V559D, T670I counted along it

## CCOc1cc(C(=O)N2CCC(N3CCN(C)CC3)CC2)ccc1Nc1ncc2c(n1)N(C1CCCC1)c1ccccc1C(=O)N2C
[1]
  inhibition: inactive

## COc1cc(N2CCC(N3CCN(C)CC3)CC2)ccc1Nc1ncc2c(n1)N(C)c1ccccc1C(=O)N2C
[2]
  inhibition: 80%
[3]
  inhibition: 100%
[4]
  inhibition: 13%
[5]
  inhibition: 31%
[6]
  inhibition: 100%
[7]
  inhibition: 100%
[8]
  inhibition: 89%
[9]
  inhibition: 89%
[10]
  inhibition: 100%
[11]
  inhibition: 95%
[12]
  inhibition: 100%
[13]
  inhibition: 100%
[14]
  inhibition: 100%
[15]
  inhibition: 100%
[16]
  inhibition: 100%
[17]
  inhibition: 100%
[18]
  inhibition: 71%
[19]
  inhibition: 100%
[20]
  inhibition: 100%
[21]
  inhibition: 100%
[22]
  inhibition: 99%
[23]
  inhibition: 100%
[24]
  inhibition: 7.5%
[25]
  inhibition: 62%
[26]
  inhibition: 100%
[27]
  residual activity: 28%
[28]
  residual activity: 97%
[29]
  residual activity: 90%
[30]
  residual activity: 81%
